Assay results published in patent US20220288051A1, “METHODS FOR TREATING CANCER USING SERIAL ADMINISTRATION OF E3 UBIQUITIN LIGASE DEGRADERS” (Dana-Farber Cancer Institute, Inc., priority 2019, published 2022).

Columns and labels:
MM.1S-dCas9-VP64 cells = assay: Genome-scale CRISPR gene activation resistance screens; type: cell-based, human; conditions: Calabrese library; successive rounds of treatment
Experimental: We also performed genome-scale CRISPR-based gene-activation screens, which followed the “long-term” configuration of the gene editing studies.
For the genome-scale screen with the Calabrese sgRNA library, tumor cells were transduced in batches of 3×10^7 cells per sublibrary for triplicates. Cells were incubated (18 h) in cell medium containing polybrene (4 μg/mL; Santa Cruz Biotechnology), 10 mM HEPES (pH 7.4) (Sigma-Aldrich) and viral prep (30 mL) diluted 1:1. Transduced cells were cultured at an initial density of 1×10^6 cells/mL and were treated with puromycin (1 μg/mL) for up to 7 days additional two days from transduction. After stable transduction, pooled MM.1S cells were plated at 30×10^6 cells per flask (T175, 100 mL) to enable coverage of 500× and were sub-cultured at three- to four-day intervals to prevent confluence. […]
Cells were immediately harvested (30×10^6) and sgRNA distribution assessed, by next generation sequencing.
iv. […] DNA concentration was quantified by UV-spectroscopy (NanoDrop 8000; ThermoFisher Scientific). […] Multiplexed samples were then sequenced at the Molecular Biology Core Facility (Dana-Farber Cancer Institute) and/or The Genomics Platform (Broad Institute) using an Illumina NextSeq 500 (Illumina, San Diego, Calif.), allowing […] individual reads per multiplexed sample.

pools of MM cells = assay: Sequential exposure to CRBN- and VHL-based degraders, CTG; type: cell-based, human; conditions: compared to treatment-naïve cells
Description: We addressed this question using pools of MM cells derived from several of our genome-scale CRISPR-based screens.

MDR1 transporter = MDR1 transporter (Homo sapiens, UniProt P08183); conditions: stated as fact; cited from earlier work
MM.1S-Cas9+ cells = assay: Genome-scale CRISPR/Cas9 gene editing (LOF) resistance screens; type: cell-based, human; conditions: 25 nM for 48 hrs; Brunello library
human MM cell lines = assay: CTG / CS-BLI cell viability of human MM cell lines; type: cell-based
Experimental: Cell viability and growth of human MM cell lines were assessed using CellTitre-Glo (CTG) assay (Promega, Madison, Wis.) per kit instructions, or CS-BLI as described (Delmore et al., 2011). Briefly, cells were seeded (5×10^3 cells/well) into 96- or 384-well opaque plates, in supplemented media (40 or 50 uL) and incubated for 24 h prior to addition of drug. For co-culture experiments, HS27A cells were pre-seeded (5×10^3 cells/well) into each well in media prior (24 h) to the addition of MM cells. At each time point (24 h, 48 h, and/or 72 h) CTG reagent (10% volume) was added to each well, and plates were read using a microplate reader (BioTek Synergy 2, BioTek, Winooski, Va.).

MM.1S cells = assay: Assessment of apoptosis, Annexin V/PI flow cytometry; type: cell-based, human
Experimental: For the assessment of apoptosis, MM.1S cells were seeded into 6-well plates (2×10^6 cells/well) in medium supplemented with 10% FBS and penicillin/streptomycin (3.2 mL) 24 h prior to treatment. Cells were treated with dBET6, JQ1, or vehicle and harvested prior to staining with Annexin V-FITC and PI (BD, Bedford, Mass.). Apoptosis was assessed immediately using flow cytometry (LSR II, BD, Bedford, Mass.)

patient-derived MM cells = assay: Ex vivo treatment of patient-derived CD138+ tumor cells, CTG; type: cell-based, human; conditions: variable prior therapies
Experimental: Bone marrow aspirates (1-4 mL) from individuals with MM (newly diagnosed, smoldering, relapsed/refractory, maintenance treatment) or MGUS were collected after patients provided informed consent and based on tissue collection protocol approved by the Dana-Farber Cancer Institute Institutional Review Board. Samples were processed for separation of CD138+ plasma cells, using CD138-positive selection beads, and immunomagnetic separation, as per kit instructions (EasySep, StemCell, Cambridge, Mass.). Patient-derived tumor cells were cultured in RPMI 1640 medium supplemented with L-glutamine (Life Technologies, Carlsbad, Calif., USA), FBS (10%) (Gemini Bioproducts, Woodland, Calif.), 20 I.U./mL penicillin and 20 μg/mL streptomycin (Fisher Scientific, Springfield, N.J., USA) and hIL-6 (Thermo Fisher Scientific, Waltham, Mass., USA […]).
Samples were processed for separation of CD138+ plasma cells, using CD138-positive selection beads, and immunomagnetic separation, as per kit instructions (EasySep, StemCell, Cambridge, Mass.). […] Viability was assessed using CTG, as described (24 h, 48 h, 72 h) and each treatment was repeated up to 3 times (n=3 biological replicates).

[1] = system: OPM1, OCI-MY5, KMS11 and OPM2 (shRNAs against CRBN); assay: CTG viability of MM cell lines with low CRBN levels; type: cell-based, human; conditions: low but detectable CRBN, constitutive or shRNA
Description: Human MM cell lines KMS11 and OPM-2 expressing non-targeting control shRNAs or shRNA.

Sequence of MDR1 transporter (P08183 whole entry): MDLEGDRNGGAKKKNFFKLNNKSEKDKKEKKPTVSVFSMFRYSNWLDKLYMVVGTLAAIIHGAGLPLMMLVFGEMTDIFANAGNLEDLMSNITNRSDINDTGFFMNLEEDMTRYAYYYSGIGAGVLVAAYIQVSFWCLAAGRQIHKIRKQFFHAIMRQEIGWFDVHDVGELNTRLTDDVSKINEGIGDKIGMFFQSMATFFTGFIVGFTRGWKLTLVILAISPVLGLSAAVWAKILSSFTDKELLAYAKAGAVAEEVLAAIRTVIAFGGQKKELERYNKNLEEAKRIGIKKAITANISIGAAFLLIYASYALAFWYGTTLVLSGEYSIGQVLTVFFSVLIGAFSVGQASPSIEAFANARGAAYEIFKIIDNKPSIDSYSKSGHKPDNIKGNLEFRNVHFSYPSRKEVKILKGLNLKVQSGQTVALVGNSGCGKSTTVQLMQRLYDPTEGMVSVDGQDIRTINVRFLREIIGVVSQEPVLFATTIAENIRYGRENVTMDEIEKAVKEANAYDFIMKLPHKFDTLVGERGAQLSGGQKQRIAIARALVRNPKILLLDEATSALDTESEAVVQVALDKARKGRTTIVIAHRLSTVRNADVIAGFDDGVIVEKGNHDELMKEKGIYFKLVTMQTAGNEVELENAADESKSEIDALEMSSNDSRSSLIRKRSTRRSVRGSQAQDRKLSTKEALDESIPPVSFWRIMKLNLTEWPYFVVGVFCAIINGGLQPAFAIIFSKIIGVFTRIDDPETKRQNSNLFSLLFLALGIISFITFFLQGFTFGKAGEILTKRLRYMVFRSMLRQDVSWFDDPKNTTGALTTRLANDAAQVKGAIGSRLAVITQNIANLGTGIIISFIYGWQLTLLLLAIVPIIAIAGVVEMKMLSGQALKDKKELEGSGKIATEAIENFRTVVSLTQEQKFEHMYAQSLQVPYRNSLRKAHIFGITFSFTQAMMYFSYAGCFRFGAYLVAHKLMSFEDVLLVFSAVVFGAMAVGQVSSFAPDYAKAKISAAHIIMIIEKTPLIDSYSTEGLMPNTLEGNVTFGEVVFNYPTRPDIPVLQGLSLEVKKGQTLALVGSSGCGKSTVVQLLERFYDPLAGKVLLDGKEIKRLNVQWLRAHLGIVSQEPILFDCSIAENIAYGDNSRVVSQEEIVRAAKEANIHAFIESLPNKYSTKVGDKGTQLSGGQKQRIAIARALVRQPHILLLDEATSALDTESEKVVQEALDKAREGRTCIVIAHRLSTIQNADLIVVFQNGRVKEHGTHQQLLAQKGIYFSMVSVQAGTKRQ

Row | SMILES | sgRNA enrichment, gene activation screen (MM.1S-dCas9-VP64 cells) | response of pools previously exposed to ARV771 and then MZ1 (pools of MM cells) | shift of dose response curve in pools previously exposed to CRBN-based degraders (pools of MM cells) | MDR1 substrate (MDR1 transporter) | sgRNA enrichment, short-term screen (MM.1S-Cas9+ cells) | suppression of MM cell viability (human MM cell lines; MM.1S, RPMI-8226, JJN3, 48 h, CTG or CS-BLI, vs JQ1) | in vitro anti-MM activity (human MM cell lines; human MM cell lines, dBET6 compared to dBET1 or JQ1) | loss of viability (human MM cell lines; larger panel of human MM cell lines, 48 h) | exposure prior to drug washout sufficient to commit cells to cell death (MM.1S cells; MM.1S cells, Annexin V/PI staining) [h] | pro-apoptotic response (MM.1S cells; human MM.1S cells, 0.01 μM or 0.05 μM) | response of patient-derived cells (patient-derived MM cells) | response of lines with low CRBN levels [1]
1 | Cc1ncsc1-c1ccc([C@H](C)NC(=O)[C@@H]2C[C@@H](O)CN2C(=O)[C@@H](NC(=O)COCCCOCCNC(=O)C[C@@H]2N=C(c3ccc(Cl)cc3)c3c(sc(C)c3C)-n3c(C)nnc32)C(C)(C)C)cc1 [ARV-771] | ABCB1, the gene for the MDR1 transporter, was commonly identified as the only gene with sgRNA enrichment | significantly decreased responsiveness | limited, if any, shift | MDR1 substrates |  |  |  |  |  |  |  | 
2 | CC(C)(C)c1cnc(CSc2cnc(NC(=O)C3CCN(CC(=O)NCCOCCOCCOCCNc4cccc5c4C(=O)N(C4CCC(=O)NC4=O)C5=O)CC3)s2)o1 (stereo not shown) [Thal-SNS-032] |  |  | major shifts to the right |  | CRBN is the top gene in terms of sgRNA enrichment |  |  |  |  |  |  | 
3 | Cc1sc2c(c1C)C(c1ccc(Cl)cc1)=N[C@@H](CC(=O)NCCCCCCCCNC(=O)COc1cccc3c1C(=O)N(C1CCC(=O)NC1=O)C3=O)c1nnc(C)n1-2 (stereo partly shown) [dBET6] | ABCB1, the gene for the MDR1 transporter, was commonly identified as the only gene with sgRNA enrichment |  |  | MDR1 substrates | CRBN is the top gene in terms of sgRNA enrichment | more pronounced suppression of MM cell viability than JQ1 | more potent in vitro anti-MM activity of dBET6 compared to dBET1 or JQ1 | significant loss of viability in all lines tested | ≤ 4 | dose- and time-dependent pro-apoptotic response | dose-dependent response | remained responsive to dBET6
